Laboratory results: paper PMC2171590 (The Journal of Cell Biology, 2005)
One block for each molecule: values may come before it.

Legend:
[1] = target: Arp2/3 complex (yeast) (Saccharomyces cerevisiae, UniProt P32381+P47117); assay: fluorescence increase titration, one-site fit; type: binding
[2] = target: Arp2/3 complex (yeast) (Saccharomyces cerevisiae, UniProt P32381+P47117, P32381:D10A); assay: fluorescence increase titration, one-site fit; type: binding
[3] = target: Arp2/3 complex (yeast) (Saccharomyces cerevisiae, UniProt P32381+P47117, P32381:G305Y); assay: fluorescence increase titration, one-site fit; type: binding
[4] = target: Arp2/3 complex (yeast) (Saccharomyces cerevisiae, UniProt P32381+P47117, P47117:D12A); assay: fluorescence increase titration, one-site fit; type: binding
[5] = target: Arp2/3 complex (yeast) (Saccharomyces cerevisiae, UniProt P32381+P47117, P47117:F362A); assay: fluorescence increase titration, one-site fit; type: binding
[6] = target: Arp2/3 complex (yeast) (Saccharomyces cerevisiae, UniProt P32381+P47117, P47117:G358Y); assay: fluorescence increase titration, one-site fit; type: binding
[7] = target: Arp2/3 complex (yeast) (Saccharomyces cerevisiae, UniProt P32381+P47117, P32381:Y309A); assay: fluorescence increase titration, one-site fit; type: binding
[8] = target: GST-tagged Las17WCA (S. cerevisiae); assay: pull-down
GST-tagged Las17WCA (S. cerevisiae), sequence (Q12446 whole entry): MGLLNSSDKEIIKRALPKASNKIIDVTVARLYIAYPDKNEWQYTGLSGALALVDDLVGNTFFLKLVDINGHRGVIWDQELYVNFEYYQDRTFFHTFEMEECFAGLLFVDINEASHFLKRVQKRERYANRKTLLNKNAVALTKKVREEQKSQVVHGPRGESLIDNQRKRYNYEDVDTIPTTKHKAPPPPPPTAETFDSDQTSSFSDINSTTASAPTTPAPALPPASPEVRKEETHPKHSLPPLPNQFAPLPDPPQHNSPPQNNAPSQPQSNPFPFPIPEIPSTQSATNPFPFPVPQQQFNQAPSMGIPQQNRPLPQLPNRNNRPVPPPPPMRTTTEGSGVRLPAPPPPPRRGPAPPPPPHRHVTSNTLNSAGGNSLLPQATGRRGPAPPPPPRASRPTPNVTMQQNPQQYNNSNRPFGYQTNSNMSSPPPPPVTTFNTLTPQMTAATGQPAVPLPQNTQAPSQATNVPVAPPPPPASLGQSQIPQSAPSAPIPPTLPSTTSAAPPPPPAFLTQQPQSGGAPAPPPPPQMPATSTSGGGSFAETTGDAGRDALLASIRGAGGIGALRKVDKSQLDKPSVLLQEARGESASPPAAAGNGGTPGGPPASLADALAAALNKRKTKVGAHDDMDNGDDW

Kd [1]: 2.3 ± 0.1 µM | Kd [2]: 2 ± 0.1 µM | Kd [3]: 1.8 ± 0.1 µM | Kd [4]: 34.5 ± 2.2 µM | Kd [5]: 16.7 ± 4.2 µM | Kd [6]: 22 ± 4.4 µM | Kd [7]: 2.4 ± 0.2 µM
Molecule: O=P(O)(O)OP(=O)(O)OP(=O)(O)OC[C@H]1O[C@@H](n2cnc3c2ncn2ccnc32)[C@H](O)[C@@H]1O [etheno-ATP]

Kd [8]: 3.9 µM
Molecule: arp2-G302Y Arp2/3 complex (from UniProt P47117 1-449; P38328 1-384; Q05933 1-178; P40518 1-154)

Kd [8]: 4.5 µM
Molecule: arp3-G302Y Arp2/3 complex (from UniProt P32381 1-391; P38328 1-384; Q05933 1-178; P40518 1-154)

Kd [8]: 4.5 µM
Molecule: wild-type yeast Arp2/3 complex (from UniProt P32381 1-391; P47117 1-449; P38328 1-384; Q05933 1-178; P40518 1-154)
